Patent US20180296523A1, “USE OF POLYMETHOXYLATED FLAVONES TO AMELIORATE CIRCADIAN RHYTHM DISORDERS” (THE BOARD OF REGENTS OF THE UNIVERSITY OF TEXAS SY, priority 2017, published 2018)

Key:
[1] = test system: peripheral tissue explants from PER2::Luc reporter mice; test: PER2::Luc reporter rhythms in peripheral tissue explants; assay type: cell-based, mouse
Description: (§1) The chemical screen for circadian clock modulators was conducted at the Chemical Genomics Core facility at the UTHSC-H. The in-house chemical library screened consists of compounds from NIH Clinical Collection, NCI collection and Microsource Spectrum Collection. The screening was conducted largely based on the protocol previously described (Chen et al., 2012). Briefly, 15,000 immortalized fibroblast cells from Clock^Δ19/+ heterozygous mice expressing the PER2::Luc bioluminescence reporter were plated into each well of 96-well plates, and incubated for 3-4 d to allow growth to confluency. Cells were then incubated with 5 μM forskolin for 1-2 h followed by the addition of chemical compounds to the plates with robotic arms (Beckman), and then subjected to continuous monitoring over several days in a temperature-controlled EnVision microplate reader (Perkin Elmer). Data analysis was carried out by using the MultiCycle software (Actimetrics) for measurement of period, phase, and amplitude. […] NOB and a structurally related analog Naringin (NAR) were re-ordered from commercial sources including Sigma and GenDEPOT and dose response validation was conducted using PER2::LucSV reporter fibroblast cells which express stronger bioluminescence signals and thus allow precise measurements of circadian clock effects of compounds (Chen et al., 2012). Tissue explant experiments were conducted as described previously (Chen et al., 2012).

regular chow-fed mice = test: Metabolic homeostasis in regular chow-fed mice; assay type: in vivo, mouse; conditions: regular chow (RC) feeding, 9-week treatment
Description: Weekly body weight was monitored in different treatment mice for 10 weeks. Body mass composition was measured at the end of experiments using a minispec mqNMR spectrometer (Bruker Optics, Texas) (Garcia et al., 2013). A control group of mice were fed with regular chow diet (Purina 5001) in parallel with the two treatment groups in HFD. For db/db and db/db Clock^Δ19/Δ19 mice, male mice at 6-8 weeks of age were group-housed (2-3/cage) and maintained on regular chow diets. Mice were subjected to oral gavage with either DMSO or NOB as described above.
Glucose tolerance test (GTT) and insulin tolerance test (ITT) were performed largely as described (He et al., 2015; Jeong et al., 2015). Briefly, after overnight and 5-hr fasting, GTT and ITT were conducted at ZT2 and ZT8 respectively. Glucose levels were measured from tail blood before and 15, 30, 60, or 120 min after injection of either 1 g/kg glucose or 0.75 U/kg insulin (Sigma) at ZT2 and ZT8 respectively by using the ONETOUCH UltraMini blood glucose monitoring system (LifeScan). Serum insulin levels were measured with the Rat/Mouse Insulin Elisa kit (Millipore) according to the manufacturer's instructions. The plasma samples were collected at ZT2 as described above for lipid assays.

[2] = test system: WT and Clock^Δ19/Δ19 mice; test: Circadian locomotor (wheel-running) activity; assay type: in vivo, mouse
Description: RC-fed WT, HFD-fed WT and Clock^[…]/[…] mice with NOB or Vehicle treatment were used for circadian locomotor activity experiments. Briefly, mice were first maintained for at least 2 weeks in a 12 hr:12 hr light:dark (LD) cycle, then released into the constant darkness, free-running condition. The mice were then maintained in constant darkness for another 2 weeks. Wheel-running data was downloaded as VitalView data files and analyzed with the […] and Actogram J program (Schmid et al., 2011; Zheng et al., 1999).

[3] = test system: clock genes and metabolic output genes in mouse liver; test: Liver gene expression in HFD-fed WT mice (qPCR, Western blot, microarray); assay type: in vivo
Description: For qPCR analysis, cells were split into 6-well plates at an initial density of 3×10^5 cells and incubated for 2-4 days before synchronization (5 μM Fsk or 100 nM Dex) followed by compound treatment. RNA samples were prepared by using PureXtract RNAsol for cDNA synthesis and real-time PCR (GenDEPOT) was performed with a MaxPro3000 Thermocycler (Agilent). qPCR primers used are listed in the table shown in Example 4. Whole cell lysates from cells similarly grown and treated in 60 mm dishes and tissue extracts were prepared as described (Yoo et al., 2013) and subjected to Western blot analysis (GenDEPOT). Antibodies for REV-ERBα (Pierce and Cell Signaling), PER1 (Lee et al., 2001) and other clock proteins (Yoo et al., 2013) were used. Total RNAs prepared from liver tissues from RC-fed, Vehicle-treated and HFD-fed, Vehicle or NOB-treated WT mice for 10 weeks were reverse transcribed into cDNAs, which were then biotin-UTP labeled and hybridized to the Illumina mouse WG-6v2.0 Expression BeadChip. Genes with statistically significant fold change differences was clustered using centered correlation (Cluster 3.0) and then visualized as a heat map on Tree View. Moreover, genes with statistically significant differences derived from microarray analyses were imported into the Ingenuity Pathway Analysis (IPA, http://www.ingenuity.com). In IPA, differentially expressed genes are mapped to genetic networks in the Ingenuity Knowledge Database to generate a set of network and then ranked by score. Heatmaps were generated by using Cluster 3.0 program. ChIP-seq data analysis was conducted as previously described (Koike et al., 2012). The data discussed in this publication have been deposited in NCBI's Gene Expression Omnibus (Edgar et al., 2002) and are accessible through GEO Series accession number GSE78848. To characterize the molecular basis of nobiletin action in HFD-fed WT mice, studies focused on a major metabolic organ, the liver, in which we observed a strong protection by nobiletin was observed. Specifically, total RNAs prepared from liver tissues from RC.Veh and HF.Veh or HF.nobiletin WT mice for 10 weeks were reverse transcribed into cDNAs, which were then biotin-UTP labeled and hybridized to the Illumina mouse WG-6v2.0 Expression BeadChip. The data discussed in this publication have been deposited in the National Center for Biotechnology Information's Gene Expression Omnibus (GEO) and are accessible through GEO Series accession number GSE78848. Real-time qPCR and western blotting analyses of circadian gene expression were conducted as previously described (Yoo et al., 2013). Primers used were as follows: […]

[4] = test system: SCN explants from PER2::Luc WT reporter mice; test: PER2::Luc reporter rhythms in SCN explants; assay type: cell-based, mouse; conditions: listed as NOB
Description: as §1, with “Tissue explant experiments were conducted as described previously (Chen et al., 2012).” left out

[5] = HF.nobiletin versus HF.Veh mice

`COc1ccc(-c2cc(=O)c3c(OC)c(OC)c(OC)c(OC)c3o2)cc1OC` [nobiletin] was tested, and the “reporter rhythm in pituitary explants” value ([1]; PER2::Luc Clock^Δ19/+ reporter mice) was “Clock-enhancing effects”, the “reporter rhythm in liver explant” value ([1]; PER2::Luc WT reporter mice) was “Clock-enhancing effects” and the “reporter rhythm in lung explant” value ([1]; PER2::Luc WT reporter mice) was “Clock-enhancing effects”. For the same compound, the “reporter rhythm in pituitary explants” value ([1]; PER2::Luc WT reporter mice) was “Clock-enhancing effects”, the “PER2::Luc reporter rhythms in peripheral tissue explants” value ([1]; from both Clock^Δ19/+ and WT reporter knockin mice) was “enhanced PER2::Luc reporter rhythms” and the metabolic homeostasis (regular chow-fed mice) was “did not show significantly beneficial effects”. For the same compound, the metabolic homeostasis (regular chow-fed mice; listed as NOB) was “did not effect metabolic homeostasis”, the wheel-running activity levels ([2]; HFD-fed Clock^Δ19/Δ19 mice) was “no significant difference in activity levels” and the wheel-running activity levels ([2]; HFD-fed WT mice, vs control treatment) was “greatly increased wheel-running activity levels”. For the same compound, the “wheel-running activity and periodicity” value ([2]; RC-fed WT C57/6J mice) was “normal wheel-running activity and periodicity”, the “ROR target genes (e.g., Cyp7b1, IkBa, and Gck)” value ([3]; DIO mouse liver, relative to control treatment) was “induced” and the “circadian clock transcript oscillations in liver” value [3, 5] was “improved circadian clock transcript oscillations”. The “clock protein rhythms in liver” value [3, 5] was “largely restored clock protein rhythms”, the “transcript expression of Cidec/Fsp27 in liver” value ([3]; HFD-fed WT mice, qPCR) was “reverted back to baseline levels” and the “expression of genes involved in gluconeogenesis and glycolysis (e.g., Pdk4 and Pkm2)” value ([3]; liver) was “altered the expression”. The “reporter rhythms in SCN explants” value [4] was “did not enhance reporter rhythms”.
